Measurements taken from ChEMBL document CHEMBL5034018, “LXR-Mediated Regulation of Marine-Derived Piericidins Aggravates High-Cholesterol Diet-Induced Cholesterol Metabolism Disorder in Mice” (J Med Chem, 2021).
The source made the active and inactive calls. No cut-off for these calls is given here.

Assays:
[1] = Down regulation of Cyp7a1 mRNA expression level in human HepG2 cells at 1 uM by RT-qPCR analysis; type: functional
[2] = Toxicity in HCD-fed C57BL/6 mouse assessed as fold increase in ALT level at 0.8 mg/kg, ip; type: organism-based; details: in vivo
[3] = Inhibition of FXR protein expression level in HCD-fed C57BL/6 mouse at 0.8 mg/kg, ip; type: functional; details: C57BL/6, ip
Mus musculus [4] = species on record: Mus musculus; experiment: Effect on bile acid homeostasis in HCD-fed C57BL/6 mouse assessed as change in Ugt1a1 mRNA expression by RT-qPCR analysis; type: functional
[5] = Effect on bile acid homeostasis in HCD-fed C57BL/6 mouse assessed as down regulation of Oatp1 mRNA expression by RT-qPCR analysis; type: functional
HepG2 [6] = experiment: Induction of apoptosis in human HepG2 cells assessed as late apoptotic cells at 5 uM measured after 48 hrs by Annexin-V-FITC/propidium iodide staining based flow cytometry (reference value: 0 %); type: functional
[7] = Induction of FXR mRNA level in human HepG2 cells assessed as fold increase in FXR expression at 1 uM by RT-qPCR analysis; type: functional
[8] = Toxicity in renal carcinoma xenografted C57BL/6 mouse assessed as effect on visceral coefficient of kidney at 0.8 mg/kg, ip; type: organism-based; details: in vivo
HepG2 [9] = experiment: Down regulation of LXRalpha protein level in human HepG2 cells at 1 to 5 uM by Western blot analysis; type: functional, cell-based; details: dose 1-5 µM
[10] = Induction of LDLR protein expression level in chow diet fed C57BL/6 mouse at 0.8 mg/kg, ip; type: functional
HepG2 [11] = experiment: Induction of apoptosis in human HepG2 cells assessed as early apoptotic cells at 5 uM measured after 48 hrs by Annexin-V-FITC/propidium iodide staining based flow cytometry (reference value: 15.5 %); type: functional
[12] = Induction of LDLR mRNA level in human HepG2 cells assessed as fold increase in LDLR expression at 5 uM by RT-qPCR analysis; type: functional
Mus musculus [13] = experiment: Induction of HCD-induced cholestasis in C57BL/6 mouse assessed as fold increase in plasma LDL-cholesterol level at 0.8 mg/kg, ip; type: functional
HepG2 [14] = experiment: Induction of mitochondrial dysfunction in human HepG2 cells assessed as decrease in ILbeta level at 5 to 10 uM after 48 hrs; type: cell-based; set-up: scale not given: the % may be the effect or the level left; details: hepg2, 48 h, dose 5-10 µM
[15] = Hepatotoxicity in renal carcinoma xenografted C57BL/6 mouse assessed as effect on body weight at 0.8 mg/kg, ip; type: toxicity, organism-based; details: in vivo
[16] = Induction of SHP mRNA level in human HepG2 cells assessed as fold increase in SHP expression at 1 uM by RT-qPCR analysis; type: functional
[17] = Hepatotoxicity in renal carcinoma xenografted C57BL/6 mouse assessed as fold increase in plasma ALT at 0.8 mg/kg, ip; type: toxicity, organism-based; details: in vivo
[18] = Effect on bile acid homeostasis in HCD-fed C57BL/6 mouse assessed as inhibition of Cyp8b1 mRNA expression by RT-qPCR analysis; type: functional; set-up: scale not given: the % may be the effect or the level left
Mus musculus [19] = species on record: Mus musculus; experiment: Effect on bile acid homeostasis in Chow diet-fed C57BL/6 mouse assessed as change in Car protein expression; type: functional
[20] = Drug metabolism in mouse liver assessed as PA formation at 10 mg/kg, po after 180 mins by LC-MS/MS analysis; type: ADME, organism-based; details: in vivo, 3 h
[21] = Induction of LDLR mRNA level in human HepG2 cells assessed as fold increase in LDLR expression at 1 uM by RT-qPCR analysis; type: functional
[22] = Effect on bile acid homeostasis in HCD-fed C57BL/6 mouse assessed as reduction in Ntcp-mRNA expression by RT-qPCR analysis; type: functional; set-up: scale not given: the % may be the effect or the level left
[23] = Drug metabolism in mouse liver assessed as PA formation at 10 mg/kg, po after 30 mins by LC-MS/MS analysis; type: ADME, organism-based; details: in vivo, 0.5 h
[24] = Effect on bile acid homeostasis in HCD-fed C57BL/6 mouse assessed as fold increase in Mrp3 mRNA expression by RT-qPCR analysis; type: functional
Mus musculus [25] = experiment: Induction of HCD-induced cholestasis in C57BL/6 mouse assessed as fold increase in plasma total bile acid level at 0.8 mg/kg, ip; type: functional
HepG2 [26] = experiment: Effect on LXRalpha mRNA level in human HepG2 cells at 1 to 5 uM by RT-qPCR analysis; type: functional, cell-based; details: dose 1-5 µM
[27] = Toxicity in renal carcinoma xenografted C57BL/6 mouse assessed as change in IL-6 level at 0.8 mg/kg, ip; type: organism-based; details: in vivo
[28] = Induction of LDLR protein expression level in HCD-fed C57BL/6 mouse at 0.8 mg/kg, ip; type: functional
[29] = Toxicity in renal carcinoma xenografted C57BL/6 mouse assessed as effect on visceral coefficient of lung at 0.8 mg/kg, ip; type: organism-based; details: in vivo
HepG2 [30] = experiment: Induction of apoptosis in human HepG2 cells assessed as necrotic cells at 5 uM measured after 48 hrs by Annexin-V-FITC/propidium iodide staining based flow cytometry (reference value: 0 %); type: functional
HepG2 [31] = experiment: Down regulation of ABCB1 protein level in human HepG2 cells at 1 to 5 uM by Western blot analysis; type: functional, cell-based; details: dose 1-5 µM
[32] = Hepatotoxicity in renal carcinoma xenografted C57BL/6 mouse assessed as liver necrosis at 0.8 mg/kg, ip by histological analysis; type: toxicity, organism-based; details: in vivo
[33] = Down regulation of FXR mRNA level in human HepG2 cells at 1 uM by RT-qPCR analysis; type: functional
[34] = biological target: T1, Oxysterols receptor LXR-alpha (Homo sapiens, UniProt Q13133); experiment: Binding affinity to full-length human LXRalpha by surface plasmon resonance assay
T1 sequence (Q13133 whole entry): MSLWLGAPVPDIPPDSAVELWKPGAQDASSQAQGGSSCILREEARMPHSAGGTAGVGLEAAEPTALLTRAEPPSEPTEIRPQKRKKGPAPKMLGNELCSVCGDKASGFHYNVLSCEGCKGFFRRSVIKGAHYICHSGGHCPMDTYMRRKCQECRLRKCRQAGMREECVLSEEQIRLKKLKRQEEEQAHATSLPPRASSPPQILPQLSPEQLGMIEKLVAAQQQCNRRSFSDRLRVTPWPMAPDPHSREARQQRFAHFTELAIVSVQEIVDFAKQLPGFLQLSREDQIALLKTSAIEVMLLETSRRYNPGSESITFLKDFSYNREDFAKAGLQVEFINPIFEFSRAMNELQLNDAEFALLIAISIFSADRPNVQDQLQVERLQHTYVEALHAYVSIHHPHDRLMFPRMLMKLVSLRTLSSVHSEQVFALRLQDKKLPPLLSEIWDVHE

[35] = Down regulation of SHP mRNA level in human HepG2 cells at 1 uM by RT-qPCR analysis; type: functional
HepG2 [36] = experiment: Induction of mitochondrial dysfunction in human HepG2 cells assessed as decrease in TNFalpha level at 1 uM after 48 hrs; type: cell-based; set-up: scale not given: the % may be the effect or the level left; details: hepg2, 48 h
[37] = Down regulation of FXR mRNA level in human HepG2 cells at 5 uM by RT-qPCR analysis; type: functional

SMILES | Activity [1] [%] | fold change (FC) [2] | inhibition in vivo at 0.8 mg/kg [3] [%] | Activity (Mus musculus [4]) | Activity [5] [%] | Activity (HepG2 [6]) [%] | Activity [8] | Activity (HepG2 [11]) [%] | fold change (FC) [12] | fold change (FC) (Mus musculus [13]) | Activity [15] | fold change (FC) [17] | Activity [18] [%] | Activity (Mus musculus [19]) | fold change (FC) [21] | Activity [22] [%] | fold change (FC) (Mus musculus [25]) | Activity [27] | Activity [29] | Activity (HepG2 [30]) [%] | further results
C/C=C(\C)[C@H](O[C@@H]1O[C@H](CO)[C@@H](O)[C@H](O)[C@H]1O)[C@H](C)/C=C(C)/C=C/C/C(C)=C/Cc1nc(OC)c(OC)c(O)c1C | 51 | 3.8 | 31 | inactive | 65 | 0 | Non-Toxic | 35.7 | 2.2 | 2.3 | Non-Toxic | 2.3 | 3 | inactive | 2.5 | 42 | 3.5 | Non-Toxic | Non-Toxic | 0 | fold change (FC) [7]: 3.6; Activity (HepG2 [9]): Active; fold change (FC) [10]: 1.5; Activity (HepG2 [14]): 68%; fold change (FC) [16]: 3.6; Drug metabolism [20]: Metabolite_Detected; Drug metabolism [23]: 14.87 ng/mL; fold change (FC) [24]: 1.65; Activity (HepG2 [26]): inactive; fold change (FC) [28]: 1.6; Activity (HepG2 [31]): Active; Activity [32]: Toxic
C/C=C(\C)[C@H](O)[C@H](C)/C=C(C)/C=C/C/C(C)=C/Cc1nc(OC)c(OC)c(O)c1C [PIERICIDIN A] | 27 | 3.7 | 79 | inactive | 66 | 0 | Non-Toxic | 24.6 | 3.1 | 2.6 | Non-Toxic | 2.6 | 2.8 | inactive | 2.7 | 60 | 2.8 | Non-Toxic | Non-Toxic | 0 | Activity [33]: 56%; Kd [34]: 3.24 µM; Activity [35]: 55%; Activity (HepG2 [36]): 54%; Activity [37]: 34%; Activity [32]: Toxic
